The values that follow come from patent publication US6949571B2, “1,2-dihydropyridine compounds, process for preparation of the same and use thereof” (Eisai Co., Ltd., priority 2000, dated 2005).

Like-named read-outs stand apart in the source and are kept apart here.

Assay [1] relates to convulsions induced by AMPA. The assay can be described thus: Anticonvulsant action induced by AMPA. The note with it: 25 mg/kg orally, male ddy mice; AMPA continuously injected into lateral ventricle 30 minutes or 1 hour after. It counts as in vivo, mice of ddy strain. The procedure:
A test compound was suspended in a 0.5% methyl cellulose solution or in sesame oil and was orally administered (25 mg/kg) to male mice of ddy strain. After 30 minutes or 1 hour from the oral administration, AMPA was continuously injected ([…]/5 μl/minute/mouse) into lateral ventricle to induce the convulsions. The effect was judged by a time-extending action until the convulsion takes place by a continuous injection of AMPA.

The mark [2] stands for this setting: Table 1, primary culture of rat embryo cerebral cortex nerve cells, 2 μM AMPA, 1 μM MK-801.
[3] abbreviates: Table 2, suppression of AMPA-induced calcium influx into nerve cells.
Setting [4] is: Table 3, primary culture of rat embryo cerebral cortex nerve cells, 2 μM AMPA, 1 μM MK-801.
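Wherever IC50 is given: primary rat embryonic cortical neurons grown on an astrocyte layer in 96-well plates, used after at least 8 to 10 days in culture, Fura2-AM fluorescence ratio at 340/380 nm excitation.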

Usually IC50 stands for the concentration at which inhibition is half-maximal. Take `O=c1c(-c2cccnc2Cl)cc(-c2ccccn2)cn1-c1ccccc1` [Example 4, 3-(2-Chloro-3-pyridyl)-5-(2-pyridyl)-1-phenyl-1,2-dihydropyridin-2-one]: in assay [1], the “anticonvulsant action (time-extending action until the convulsion takes place)” value (from here on “anticonvulsant action”) is “significant anticonvulsant action”. The molecule further gave an IC50 with AMPA receptor (setting [2]) of 100 nM.

`N#Cc1ccccc1-c1cc(-c2ccccn2)cn(-c2cccc(N)c2)c1=O` [Example 9, 3-(2-Cyanophenyl)-5-(2-pyridyl)-1-(3-aminophenyl)-1,2-dihydropyridin-2-one]: in assay [1], the “anticonvulsant action” value is listed as “significant anticonvulsant action”. Also, the IC50 in the assay on AMPA receptor (setting [2]) was 30 nM.

For `CN(C)c1cccc(-n2cc(-c3ccccn3)cc(-c3ccccc3C#N)c2=O)c1` [Example 12, 3-(2-Cyanophenyl)-5-(2-pyridyl)-1-(3-dimethylaminophenyl)-1,2-dihydropyridin-2-one], in assay [1], the “anticonvulsant action” value is listed as “significant anticonvulsant action”. This molecule came in with an IC50 in the assay with AMPA receptor (setting [2]) of 100 nM.

For `N#Cc1ncccc1-c1cc(-c2ccccn2)cn(-c2ccccc2)c1=O` [Example 16, 3-(2-Cyano-3-pyridyl)-5-(2-pyridyl)-1-phenyl-1,2-dihydropyridin-2-one], the “anticonvulsant action” value in assay [1] is reported as “significant anticonvulsant action”. Further, in the assay with AMPA receptor (setting [2]), the concentration for half-maximal inhibition (IC50) is 100 nM.

As to `N#Cc1ccccc1-c1cc(-c2ccccc2)cn(-c2ccccc2)c1=O` [Example 41, 3-(2-Cyanophenyl)-1,5-diphenyl-1,2-dihydropyridin-2-one], the “anticonvulsant action” value in assay [1] is reported as “significant anticonvulsant action”. Further, in the assay on AMPA receptor (setting [2]), the concentration for half-maximal inhibition (IC50) came to 80 nM.

Regarding `N#Cc1ccccc1-c1cc(-c2ccccc2)cn(-c2cccnc2)c1=O` [Example 47, 3-(2-Cyanophenyl)-5-phenyl-1-(3-pyridyl)-1,2-dihydropyridin-2-one], the “anticonvulsant action” value in assay [1] was “significant anticonvulsant action”. Moreover, half-maximal inhibition with AMPA receptor (setting [2]) (IC50) was put at 600 nM.

Regarding `O=c1c(-c2ccccc2Cl)cc(-c2ccccn2)cn1-c1ccccc1` [Example 57, 3-(2-Chlorophenyl)-5-(2-pyridyl)-1-phenyl-1,2-dihydropyridin-2-one], the “anticonvulsant action” value in assay [1] is “significant anticonvulsant action”. This molecule registered a 50% inhibitory concentration (IC50) with AMPA receptor (setting [2]) of 200 nM.

Consider `O=c1c(-c2ccccc2)cc(-c2ccccn2)cn1-c1ccccc1` [Example 61, 3-Phenyl-5-(2-pyridyl)-1-phenyl-1,2-dihydropyridin-2-one], for which, in assay [1], the “anticonvulsant action” value is on record as “significant anticonvulsant action”. This molecule also gave an IC50 in the assay on AMPA receptor (setting [2]) of 200 nM.

Take `N#Cc1cccc(-c2cc(-c3ccccn3)cn(-c3ccccc3)c2=O)n1` [Example 78, 3-(6-Cyano-2-pyridyl)-5-(2-pyridyl)-1-phenyl-1,2-dihydropyridin-2-one]: in assay [1], the “anticonvulsant action” value is given as “significant anticonvulsant action”. In the assay with AMPA receptor (setting [2]), inhibition was half-maximal at 1400 nM (IC50).

On to `N#Cc1ccccc1-c1cc(-c2ccccn2)cn(-c2ccc(F)cc2)c1=O` [Example 91, 3-(2-Cyanophenyl)-5-(2-pyridyl)-1-(4-fluorophenyl)-1,2-dihydropyridin-2-one], for which the “anticonvulsant action” value in assay [1] is reported as “significant anticonvulsant action”. In the assay with AMPA receptor (setting [2]), half-maximal inhibition (IC50) was put at 50 nM.

For the molecule `COc1ccccc1-n1cc(-c2ccccn2)cc(-c2ccccc2C#N)c1=O` [Example 126, 3-(2-Cyanophenyl)-5-(2-pyridyl)-1-(2-methoxyphenyl)-1,2-dihydropyridin-2-one], in assay [1], the “anticonvulsant action” value is reported as “significant anticonvulsant action”. Further, the IC50 with AMPA receptor (setting [2]) was found to be 300 nM.

As for `O=c1c(-c2ccccc2Cl)cc(-c2ccccn2)cn1-c1cccnc1` [Example 128, 3-(2-Chlorophenyl)-5-(2-pyridyl)-1-(3-pyridyl)-1,2-dihydropyridin-2-one], the “anticonvulsant action” value in assay [1] is “significant anticonvulsant action”. In the assay on AMPA receptor (setting [2]), this molecule yielded an IC50 of 70 nM.

For the molecule `N#Cc1sccc1-c1cc(-c2ccccn2)cn(-c2cccnc2)c1=O` [Example 137, 3-(2-Cyanothiophen-3-yl)-5-(2-pyridyl)-1-(3-pyridyl)-1,2-dihydropyridin-2-one], the “anticonvulsant action” value in assay [1] was “significant anticonvulsant action”. Moreover, in the assay on AMPA receptor (setting [3]), the IC50 turned out to be 50 nM.

Turning to `N#Cc1ccccc1-c1cc(-c2cnccn2)cn(-c2ccccc2)c1=O` [Example 199, 3-(2-Cyanophenyl)-1-phenyl-5-(2-pyrazyl)-1,2-dihydropyridin-2-one], the “anticonvulsant action” value in assay [1] is recorded as “significant anticonvulsant action”. Moreover, the IC50 in the assay on AMPA receptor (setting [3]) was 700 nM.

Turning to `O=c1c(-c2ccccc2[N+](=O)[O-])cc(-c2ccccn2)cn1-c1ccccc1` [Example 270, 3-(2-Nitrophenyl)-1-phenyl-5-(2-pyridyl)-1,2-dihydropyridin-2-one], the “anticonvulsant action” value in assay [1] was “significant anticonvulsant action”. In addition, the IC50 in the assay on AMPA receptor (setting [3]) worked out at 140 nM.

Consider `N#Cc1ccccc1-c1cc(-c2nc3ccccc3n2C2CCN(Cc3ccccc3)CC2)cn(-c2ccccc2)c1=O` [Example 365, 3-(2-Cyanophenyl)-5-[1-(1-benzylpiperidin-4-yl)benzimidazol-2-yl]-1-phenyl-1,2-dihydropyridin-2-one], for which inhibition with AMPA receptor (setting [4]) was half-maximal at 2700 nM (IC50).

As to `O=c1c(-c2nc3cnccc3[nH]2)cc(-c2ccccn2)cn1-c1ccccc1` [Example 367, 3-(1H-Imidazo[4,5-c]pyridin-2-yl)-5-(2-pyridyl)-1-phenyl-1,2-dihydropyridin-2-one], in the assay with AMPA receptor (setting [4]), the IC50 is 600 nM.

As to `O=c1c(-c2nc3ccccc3s2)cc(-c2ccccn2)cn1-c1ccccc1` [Example 371, 3-(2-Benzothiazolyl)-5-(2-pyridyl)-1-phenyl-1,2-dihydropyridin-2-one], in the assay on AMPA receptor (setting [4]), the IC50 amounted to 600 nM.

Consider `N#Cc1ccccc1-c1cc(-c2ccccn2)cn(C2CCCN(Cc3ccccc3)C2)c1=O` (stereo not drawn) [Example 379-B, 3-(2-Cyanophenyl)-5-(2-pyridyl)-1-(N-benzylpiperidin-3-yl)-1,2-dihydropyridin-2-one], for which half-maximal inhibition in the assay with AMPA receptor (setting [4]) (IC50) required 6400 nM.

With `Cc1ccc(-n2cc(-c3ccccn3)cc(-c3ccccc3C#N)c2=O)cc1[N+](=O)[O-]` [Example 381, 3-(2-Cyanophenyl)-5-(2-pyridyl)-1-(2-nitrotoluen-4-yl)-1,2-dihydropyridin-2-one], the concentration for half-maximal inhibition (IC50) with AMPA receptor (setting [4]) turned out to be 400 nM.

`O=c1c(S(=O)(=O)c2ccc(Cl)cc2)cc(-c2ccccn2)cn1-c1ccccc1` [Example 382-B, 3-(4-Chlorobenzenesulfonyl)-5-(2-pyridyl)-1-phenyl-1,2-dihydropyridin-2-one] showed an IC50 in the assay with AMPA receptor (setting [4]) of 2300 nM.

In the assay with AMPA receptor (setting [4]), `O=c1c(-c2ccccc2Cl)cc(Sc2ccc(Cl)cc2)cn1-c1cccnc1` [Example 385, 3-(2-Chlorophenyl)-5-(4-chlorophenylthio)-1-(3-pyridyl)-1,2-dihydropyridin-2-one] registered an IC50 of 1100 nM.

For the molecule `N#Cc1ccccc1-c1cc(-c2nc3ccccc3[nH]2)cn(-c2ccccc2)c1=O` [Example 386, 3-(2-Cyanophenyl)-5-(1H-benzimidazol-2-yl)-1-phenyl-1,2-dihydropyridin-2-one], in the assay with AMPA receptor (setting [4]), the IC50 turned out to be 3500 nM.

On to `O=c1c(C2C3CC4CC(C3)CC2C4)cc(-c2ccccn2)cn1-c1ccccc1` (stereo not drawn) [Example 387, 3-(2-Adamantyl)-5-(2-pyridyl)-1-phenyl-1,2-dihydropyridin-2-one], for which, in the assay on AMPA receptor (setting [4]), the IC50 stood at 7000 nM.

As for `Cn1cccc2nc(-c3cc(-c4ccccc4C#N)c(=O)n(-c4ccccc4)c3)nc1-2` [Example 388, 3-(2-Cyanophenyl)-5-(4-methyl-imidazo[4.5-b]pyridin-2-yl)-1-phenyl-1,2-dihydropyridin-2-one], in the assay with AMPA receptor (setting [4]), 2900 nM corresponded to half-maximal inhibition (IC50).

Regarding `O=c1c(-c2nc(-c3ccccc3)no2)cc(-c2ccccn2)cn1-c1ccccc1` [Example 390, 3-(3-Phenyl-1,2,4-oxadiazol-5-yl)-1-phenyl-5-(2-pyridyl)-1,2-dihydropyridin-2-one], in the assay with AMPA receptor (setting [4]), the half-maximal inhibitory concentration (IC50) came out at 1000 nM.

For the molecule `N#Cc1sccc1-c1cc(-c2ccccn2)cn(-c2ccccc2)c1=O` [Example 391, 3-(2-Cyanothiophen-3-yl)-5-(2-pyridyl)-1-phenyl-1,2-dihydropyridin-2-one], inhibition with AMPA receptor (setting [4]) was half-maximal at 100 nM (IC50).

`O=c1c(-c2ccccc2-c2cnco2)cc(-c2ccccn2)cn1-c1ccccc1` [Example 392, 3-[2-(5-oxazolyl)phenyl]-1-phenyl-5-(2-pyridyl)-1,2-dihydropyridin-2-one]: in the assay on AMPA receptor (setting [4]), 100 nM corresponded to half-maximal inhibition (IC50).

Regarding `O=c1c(-c2ccsc2-c2cnco2)cc(-c2ccccn2)cn1-c1ccccc1` [Example 393, 3-[2-(5-Oxazolyl)thiophen-3-yl]-1-phenyl-5-(2-pyridyl)-1,2-dihydropyridin-2-one], in the assay with AMPA receptor (setting [4]), it took 300 nM to reach half-maximal inhibition (IC50).

Take `N#Cc1ccccc1-c1cc(C(=O)c2ccccn2)cn(-c2ccccc2)c1=O` [Example 394, 3-(2-Cyanophenyl)-5-(2-pyridinecarbonyl)-1-phenyl-1,2-dihydropyridin-2-one]: it took 1400 nM to reach half-maximal inhibition in the assay on AMPA receptor (setting [4]) (IC50).

Consider `O=C(c1cc(-c2ccccc2)c(=O)n(-c2ccccc2)c1)c1ccccn1` [Example 395, 5-(2-Pyridinecarbonyl)-1-phenyl-3-phenyl-1,2-dihydropyridin-2-one], for which the IC50 in the assay on AMPA receptor (setting [4]) is 900 nM.

On to `CCOC(=O)C=Cc1sccc1-c1cc(-c2ccccn2)cn(-c2ccccc2)c1=O` [Example 398, 3-[(2-Ethoxycarbonyl)vinylthiophen-3-yl]-5-(2-pyridyl)-1-phenyl-1,2-dihydropyridin-2-one], for which half-maximal inhibition in the assay with AMPA receptor (setting [4]) (IC50) required 200 nM.

In the assay on AMPA receptor (control compound, same test, 2 μM AMPA), `CC1=NN=C(c2ccc(N)cc2)c2cc3c(cc2C1)OCO3` [GYKI 52466, reference compound] returned a half-maximal inhibitory concentration (IC50) of 9020 nM.
